Data: PubChem BioAssay AID2060609 (Molecular Pharmacology Branch, DTP, NCI, 2025)
Values joined by “and” are separate entries in the source; they are usually repeats but may differ in a detail not shown here. Equal values may be shown once. One block for each molecule: values may come before it.

System: 855422-203-R-J1-PDC complex spheroids, viability
Assay: Anticancer human tumor 855422-203-R-J1-PDC patient-derived bladder carcinoma cell line growth inhibition [CLK]
Conditions: for viability, T/C: stronger effect = lower value
Text: A high-throughput screen of multi-cell type tumor spheroids was designed to identify active combinations of […] and targeted small molecules. Complex spheroids include a stromal component modeled by human endothelial cells (HUVEC) and fibroblasts modeled by human mesenchymal stem cells (MSCs). The concentration ranges selected for each drug and investigational agent were based upon clinically achievable concentrations if the clinical Cmax of the agent was known.
Compounds. The drugs and investigational agents: cirtuvivint (SM08502; NSC835563), CC-671 (NSC850746), vemurafenib (NSC761431), tapotoclax (NSC804041), sotorasib (NSC818433), adagrasib (NSC831453), MRTX-1133 (NSC836407), BAY2416964 (NSC825713), copanlisib (NSC816437), inavolisib (NSC800729), abemaciclib (NSC768073), osimertinib (NSC779217), entinostat (NSC756642), eltanexor (KPT-8602, NSC794443), venetoclax (NSC766270), ceralasertib (NSC777638), bortezomib (NSC756655), olaparib (NSC753686), talazoparib (NSC767125), alisertib (NSC759677), peposertib (NSC802822), gemcitabine (NSC613327), 5-fluorouracil (NSC19893), SN-38 (NSC673596), oxaliplatin (NSC266046), paclitaxel (NSC125973), and doxorubicin (NSC123127), were obtained from the National Cancer Institute (NCI) Developmental Therapeutics Program Chemical Repository. The FDA-approved anticancer drug set is available from the Developmental Therapeutics Program at https://dtp.cancer.gov/organization/dscb/obtaining/available plates.htm. […] The stock solutions were prepared in dimethyl sulfoxide (DMSO, Sigma-Aldrich, St. Louis, MO, cat. D2650), except for the platinum complexes which were prepared in saline (Quality Biological, Gaithersburg, MD, cat. 114-055-101), at 800-fold the tested concentration and stored at -70 degrees C prior to their use. All drugs and investigational agents were tested over a range starting from a high concentration at or near the clinical Cmax and decreasing in half-log increments. If the clinical Cmax for an agent had not been determined, the highest concentration tested was 10 microM.
Cell Culture. All cells were maintained in an incubator at 37 degrees C and 5% CO2 with 95% humidity. The PDC lines were cultured according to standard operating procedures established by the NCI PDMR. Briefly, all PDCs were thawed and cultured in Matrigel-coated flasks prepared with a working solution of 1X Ham's F-12 nutrient mix, without supplementation (Invitrogen, Waltham, MA, cat. 11765054), 100 U/mL penicillin-streptomycin (Invitrogen, cat. 15140122), and 2.5% Matrigel (Corning Inc., Corning, NY, cat. 354248) for the first three passages. The 947758-054-R-J2-PDC line was cultured in 6B/Colon 1A media, which includes advanced DMEM/F-12 (Thermo Fisher Scientific, cat. 12634028), 10 mM HEPES (Thermo Fisher Scientific, cat. 15630080), 1X GlutaMAX supplement (Thermo Fisher Scientific, cat. 35050061), 0.1 mg/mL primocin (InvivoGen, cat. ant-pm-2), 10% defined fetal bovine serum, heat inactivated (HyClone Laboratories Inc., cat. SH30070.03HI), 1.25 mM N-Acetyl-L-cysteine (Sigma-Aldrich, cat. A9165), 10 mM nicotinamide (Sigma-Aldrich, cat. N0636), 1X B-27 supplement (Thermo Fisher Scientific, cat. 17504044), 1X N-2 supplement (Thermo Fisher Scientific, cat. 17502048), and 10 microM Y-27632 dihydrochloride (Tocris Bioscience, cat. 1254). The 876862-298-R-J1-PDC was cultured in 6E media, which includes all 6B/Colon 1A media components plus 50% L-WRN conditioned media (ATCC, cat. CRL-3276), 50 ng/mL recombinant human EGF recombinant protein (hEGF; Thermo Fisher Scientific, cat. PHG0311), 10 ng/mL recombinant human fibroblast growth factor 10 (hGFG-10; PeproTech, cat. 100-26), 1 ng/mL recombinant human fibroblast growth factor 2 (hFGF-2; PeproTech, cat. 100-18B), and 1 µM prostaglandin E2 (PGE2; Tocris, cat. 2296). The 227483-062-R1-J1-PDC line was cultured in Panc media, containing all 6E components except hFGF-2, with the addition of 500 nM SB-431542 (Selleckchem, cat. S1067) and 10 nM gastrin (Tocris, cat. 3006). […]

[1] = curve of first compound, second compound 0.0316 µM
[2] = curve of first compound, second compound 0.1 µM
[3] = curve of first compound, second compound 0.316 µM
[4] = curve of first compound, second compound 1 µM
[5] = curve of first compound, second compound 3.16 µM
[6] = curve of first compound, second compound 10 µM
[7] = second compound 0.0316 µM, first compound 0.0316 µM
[8] = second compound 0.0316 µM, first compound 0.1 µM
[9] = second compound 0.0316 µM, first compound 0.316 µM
[10] = second compound 0.0316 µM, first compound 1 µM
[11] = second compound 0.0316 µM, first compound 3.16 µM
[12] = second compound 0.0316 µM, first compound 10 µM
[13] = second compound 0.1 µM, first compound 0.0316 µM
[14] = second compound 0.1 µM, first compound 0.1 µM
[15] = second compound 0.1 µM, first compound 0.316 µM
[16] = second compound 0.1 µM, first compound 1 µM
[17] = second compound 0.1 µM, first compound 3.16 µM
[18] = second compound 0.1 µM, first compound 10 µM
[19] = second compound 0.316 µM, first compound 0.0316 µM
[20] = second compound 0.316 µM, first compound 0.1 µM
[21] = second compound 0.316 µM, first compound 0.316 µM
[22] = second compound 0.316 µM, first compound 1 µM
[23] = second compound 0.316 µM, first compound 3.16 µM
[24] = second compound 0.316 µM, first compound 10 µM
[25] = second compound 1 µM, first compound 0.0316 µM
[26] = second compound 1 µM, first compound 0.1 µM
[27] = second compound 1 µM, first compound 0.316 µM
[28] = second compound 1 µM, first compound 1 µM
[29] = second compound 1 µM, first compound 3.16 µM
[30] = second compound 1 µM, first compound 10 µM
[31] = second compound 3.16 µM, first compound 0.0316 µM
[32] = second compound 3.16 µM, first compound 0.1 µM
[33] = second compound 3.16 µM, first compound 0.316 µM
[34] = second compound 3.16 µM, first compound 1 µM
[35] = second compound 3.16 µM, first compound 3.16 µM
[36] = second compound 3.16 µM, first compound 10 µM
[37] = second compound 10 µM, first compound 0.0316 µM
[38] = second compound 10 µM, first compound 0.1 µM
[39] = second compound 10 µM, first compound 0.316 µM
[40] = second compound 10 µM, first compound 1 µM
[41] = second compound 10 µM, first compound 3.16 µM
[42] = second compound 10 µM, first compound 10 µM
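Note: spheroids exposed to drugs for seven days before readout.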
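Throughout, for viability, T/C: 100% = DMSO vehicle control wells.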

SMILES: CN1CCN(c2cc(C(=O)Nc3cc4cc(-c5cnn(C)c5)ccc4cn3)ccn2)CC1
viability, T/C (compound 0.1 µM): 94% [middle of 12 runs]
viability, T/C (compound 0.316 µM): 9.83% [middle of 12 runs]
viability, T/C (compound 1 µM): 0.34% [middle of 11 runs]
viability, T/C (compound 3.16 µM): 0.57% [middle of 11 runs]
viability, T/C (compound 10 µM): 0.34% [middle of 11 runs]
IC50 (compound alone, run of 07/31/2023): 181 nM [middle of 9 runs]

SMILES: C=CC(=O)N1CCN(c2nc(=O)n(-c3c(C)ccnc3C(C)C)c3nc(-c4c(O)cccc4F)c(F)cc23)C(C)C1 (centres undefined) + CN1CCN(c2cc(C(=O)Nc3cc4cc(-c5cnn(C)c5)ccc4cn3)ccn2)CC1
IC50 [1]: > 10 µM
IC50 [2]: > 10 µM
IC50 [3]: < 0.0316 µM
IC50 [4]: < 0.0316 µM
IC50 [5]: < 0.0316 µM
IC50 [6]: < 0.0316 µM
viability, T/C [7]: 99%
viability, T/C [8]: 110%
viability, T/C [9]: 134%
viability, T/C [10]: 138%
viability, T/C [11]: 169%
viability, T/C [12]: 119%
viability, T/C [13]: 85.5%
viability, T/C [14]: 92.3%
viability, T/C [15]: 94.7%
viability, T/C [16]: 116%
viability, T/C [17]: 113%
viability, T/C [18]: 82.1%
viability, T/C [19]: 12.1%
viability, T/C [20]: 18.2%
viability, T/C [21]: 17.9%
viability, T/C [22]: 17.6%
viability, T/C [23]: 17.6%
viability, T/C [24]: 7.91%
viability, T/C [25]: 0.24%
viability, T/C [26]: 0.27%
viability, T/C [27]: 0.3%
viability, T/C [28]: 0.42%
viability, T/C [29]: 0.52%
viability, T/C [30]: 2.45%
viability, T/C [31]: 0.88%
viability, T/C [32]: 0.76%
viability, T/C [33]: 2.22%
viability, T/C [34]: 1.37%
viability, T/C [35]: 1.55%
viability, T/C [36]: 1.14%
viability, T/C [37]: 0.53%
viability, T/C [38]: 0.49%
viability, T/C [39]: 0.4%
viability, T/C [40]: 0.89%
viability, T/C [41]: 0.88%
viability, T/C [42]: 1.04%

SMILES: CCCS(=O)(=O)Nc1ccc(F)c(C(=O)c2c[nH]c3ncc(-c4ccc(Cl)cc4)cc23)c1F + CN1CCN(c2cc(C(=O)Nc3cc4cc(-c5cnn(C)c5)ccc4cn3)ccn2)CC1
IC50 [1]: 4.79 µM
IC50 [2]: 5.02 µM
IC50 [3]: < 0.0316 µM
IC50 [4]: < 0.0316 µM
IC50 [5]: < 0.0316 µM
IC50 [6]: < 0.0316 µM
viability, T/C [7]: 83.9%
viability, T/C [8]: 88.1%
viability, T/C [9]: 103%
viability, T/C [10]: 106%
viability, T/C [11]: 76.5%
viability, T/C [12]: 3.42%
viability, T/C [13]: 74.2%
viability, T/C [14]: 85.5%
viability, T/C [15]: 87.9%
viability, T/C [16]: 86.5%
viability, T/C [17]: 81.8%
viability, T/C [18]: 2.76%
viability, T/C [19]: 6.38%
viability, T/C [20]: 8.19%
viability, T/C [21]: 9.52%
viability, T/C [22]: 7.73%
viability, T/C [23]: 6.35%
viability, T/C [24]: 1.15%
viability, T/C [25]: 0.16%
viability, T/C [26]: 0.18%
viability, T/C [27]: 0.46%
viability, T/C [28]: 0.19%
viability, T/C [29]: 0.19%
viability, T/C [30]: 0.08%
viability, T/C [31]: 0.34%
viability, T/C [32]: 0.68%
viability, T/C [33]: 0.32%
viability, T/C [34]: 0.46%
viability, T/C [35]: 1.09%
viability, T/C [36]: 0.77%
viability, T/C [37]: 0.23%
viability, T/C [38]: 0.51%
viability, T/C [39]: 0.21%
viability, T/C [40]: 0.35%
viability, T/C [41]: 0.5%
viability, T/C [42]: 0.29%

SMILES: COC1C=CCC(C)C(C)S(=O)(=O)NC(=O)c2ccc3c(c2)N(CC2CCC21)CC1(CCCc2cc(Cl)ccc21)CO3 (centres undefined) + CN1CCN(c2cc(C(=O)Nc3cc4cc(-c5cnn(C)c5)ccc4cn3)ccn2)CC1
IC50 [1]: 5.97 µM
IC50 [2]: 4.81 µM
IC50 [3]: < 0.0316 µM
IC50 [4]: < 0.0316 µM
IC50 [5]: < 0.0316 µM
IC50 [6]: < 0.0316 µM
viability, T/C [7]: 89.7%
viability, T/C [8]: 104%
viability, T/C [9]: 101%
viability, T/C [10]: 105%
viability, T/C [11]: 110%
viability, T/C [12]: 7.64%
viability, T/C [13]: 73.2%
viability, T/C [14]: 79.6%
viability, T/C [15]: 78.4%
viability, T/C [16]: 77.5%
viability, T/C [17]: 74.4%
viability, T/C [18]: 7.3%
viability, T/C [19]: 5.49%
viability, T/C [20]: 8.06%
viability, T/C [21]: 8.27%
viability, T/C [22]: 8.14%
viability, T/C [23]: 9.01%
viability, T/C [24]: 3.13%
viability, T/C [25]: 0.17%
viability, T/C [26]: 0.15%
viability, T/C [27]: 0.14%
viability, T/C [28]: 0.18%
viability, T/C [29]: 0.12%
viability, T/C [30]: 0.64%
viability, T/C [31]: 0.29%
viability, T/C [32]: 0.46%
viability, T/C [33]: 0.42%
viability, T/C [34]: 0.42%
viability, T/C [35]: 0.31%
viability, T/C [36]: 0.15%
viability, T/C [37]: 0.31%
viability, T/C [38]: 0.16%
viability, T/C [39]: 0.31%
viability, T/C [40]: 0.39%
viability, T/C [41]: 0.95%
viability, T/C [42]: 0.32%

The next lines start with results.

IC50 (compound alone, run of 08/01/2023): 142 nM [middle of 11 runs]
SMILES: CNC(=O)c1ccc(Nc2nc(OC3CCCC3)c3c(-c4ccc5nc(C)oc5c4)c[nH]c3n2)c(OC)c1
viability, T/C (compound 0.316 µM): 23.8% [middle of 12 runs]
viability, T/C (compound 1 µM): 22.5% [middle of 12 runs]
viability, T/C (compound 3.16 µM): 21.2% [middle of 12 runs]
viability, T/C (compound 10 µM): 20.1% [middle of 11 runs]

IC50 (curve of compound): 5.61 µM and 4.9 µM
SMILES: COc1ccc([C@@H](O)c2cc(-c3ncnc4cc(N5CCOCC5)ccc34)c(F)cc2Cl)nn1
viability, T/C (compound 0.0316 µM): 95.2% and 115%
viability, T/C (compound 0.1 µM): 98.5% and 95.4%
viability, T/C (compound 0.316 µM): 105% and 107%
viability, T/C (compound 1 µM): 103% and 85.6%
viability, T/C (compound 3.16 µM): 64.8% and 64.9%
viability, T/C (compound 10 µM): 35.1% and 26.4%
